Reference: patent US12319672B2, “Alpha-D-galactopyranoside derivatives” (Idorsia Pharmaceuticals Ltd, priority 2019, dated 2025)

Key:
[1] = target: human Gal-3 (hGal-3) (Homo sapiens (Human), UniProt P17931); test: Competitive binding assay: binding of biotinylated hGal-3 to microplate-adsorbed asialofetuin (ASF); conditions: Activity on hGal-3; mean values of several measurements
Summary of the method: (§1)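 Spectrophotometric readout (streptavidin-peroxidase, ABTS) of biotinylated galectin retained on ASF-coated wells. Biotinylated hGal-1 or hGal-3, 300-1000 ng/mL, co-incubated with test compound 3 h at 4° C, then washed. Mean IC50 from repeat runs.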

[2] = target: human Gal-1 (hGal-1); test: Competitive binding assay: binding of biotinylated hGal-1 to microplate-adsorbed asialofetuin (ASF); conditions: Activities on hGal-1; mean values of several measurements
Summary of the method: as §1

Chain of human Gal-3 (hGal-3) (P17931 whole entry): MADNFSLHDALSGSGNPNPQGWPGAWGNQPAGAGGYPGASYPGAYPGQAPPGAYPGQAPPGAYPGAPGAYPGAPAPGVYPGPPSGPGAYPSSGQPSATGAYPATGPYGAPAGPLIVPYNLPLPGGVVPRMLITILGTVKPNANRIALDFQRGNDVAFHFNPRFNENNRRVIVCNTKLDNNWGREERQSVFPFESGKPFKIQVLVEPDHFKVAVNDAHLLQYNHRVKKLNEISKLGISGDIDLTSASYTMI
Chain of human Gal-1 (hGal-1) (P09382 2-135 limits assumed): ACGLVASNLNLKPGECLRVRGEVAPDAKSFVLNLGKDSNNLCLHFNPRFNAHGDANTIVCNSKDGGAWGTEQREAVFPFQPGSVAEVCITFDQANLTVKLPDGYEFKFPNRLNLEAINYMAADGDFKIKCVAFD

CO[C@@H]1[C@@H](n2cc(-c3cc(F)c(F)c(F)c3)nn2)[C@@H](O)[C@@H](CO)O[C@@H]1CC1CC(C(C)(C)C)=NO1 (stereo partly shown) [Ex 1.265]
IC50 [1]: 250 nM
IC50 [2]: 2580 nM

CO[C@@H]1[C@@H](n2cc(-c3ccc(Cl)c(F)c3F)nn2)[C@@H](O)[C@@H](CO)O[C@@H]1CC1CC(C(C)(C)C)=NO1 (stereo partly shown) [Ex 1.266]
IC50 [1]: 91 nM
IC50 [2]: 1560 nM

CO[C@@H]1[C@@H](n2cc(-c3ccc(C#N)c(F)c3F)nn2)[C@@H](O)[C@@H](CO)O[C@@H]1Cc1cc(C(C)(C)C)on1 [Ex 1.267]
IC50 [1]: 160 nM
IC50 [2]: 6100 nM

CO[C@@H]1[C@@H](n2cc(-c3cc(F)c(F)c(F)c3)nn2)[C@@H](O)[C@@H](CO)O[C@@H]1Cc1cc(C2(C)CCOCC2)on1 [Ex 1.268]
IC50 [1]: 110 nM
IC50 [2]: 2490 nM

CO[C@@H]1[C@@H](n2cc(-c3ccc(F)c(F)c3F)nn2)[C@@H](O)[C@@H](CO)O[C@@H]1Cc1cc(C2(C)CCOCC2)on1 [Ex 1.269]
IC50 [1]: 49 nM
IC50 [2]: 900 nM

CO[C@@H]1[C@@H](n2cc(-c3ccc(C)c(F)c3F)nn2)[C@@H](O)[C@@H](CO)O[C@@H]1Cc1cc(C2(C)CCOCC2)on1 [Ex 1.270]
IC50 [1]: 38 nM
IC50 [2]: 3550 nM

CO[C@@H]1[C@@H](n2cc(-c3ccc(Cl)c(F)c3F)nn2)[C@@H](O)[C@@H](CO)O[C@@H]1Cc1cc(C2(C)CCOCC2)on1 [Ex 1.271]
IC50 [1]: 49 nM
IC50 [2]: 1660 nM

CO[C@@H]1[C@@H](n2cc(-c3cc(F)c(F)c(F)c3)nn2)[C@@H](O)[C@@H](CO)O[C@@H]1Cc1cc(C2(C)CCCC2)on1 [Ex 1.272]
IC50 [1]: 250 nM
IC50 [2]: 3490 nM

CO[C@@H]1[C@@H](n2cc(-c3ccc(F)c(F)c3F)nn2)[C@@H](O)[C@@H](CO)O[C@@H]1Cc1cc(C2(C)CCCC2)on1 [Ex 1.273]
IC50 [1]: 66 nM
IC50 [2]: 720 nM

CO[C@@H]1[C@@H](n2cc(-c3ccc(C)c(F)c3F)nn2)[C@@H](O)[C@@H](CO)O[C@@H]1Cc1cc(C2(C)CCCC2)on1 [Ex 1.274]
IC50 [1]: 110 nM
IC50 [2]: 5540 nM

CO[C@@H]1[C@@H](n2cc(-c3ccc(Cl)c(F)c3F)nn2)[C@@H](O)[C@@H](CO)O[C@@H]1Cc1cc(C2(C)CCCC2)on1 [Ex 1.275]
IC50 [1]: 110 nM
IC50 [2]: 3300 nM

CO[C@@H]1[C@@H](n2cc(-c3cc(F)c(F)c(F)c3)nn2)[C@@H](O)[C@@H](CO)O[C@@H]1Cc1cc(C2(C#N)CCCC2)on1 [Ex 1.276]
IC50 [1]: 97 nM
IC50 [2]: 5100 nM

CO[C@@H]1[C@@H](n2cc(-c3ccc(C)c(F)c3F)nn2)[C@@H](O)[C@@H](CO)O[C@@H]1Cc1cc(C2(C#N)CCCC2)on1 [Ex 1.278]
IC50 [1]: 93 nM
IC50 [2]: 6700 nM

CO[C@@H]1[C@@H](n2cc(-c3ccc(Cl)c(F)c3F)nn2)[C@@H](O)[C@@H](CO)O[C@@H]1CC1CC(C(C)(C)CO)=NO1 (stereo partly shown) [Ex 1.280]
IC50 [1]: 300 nM
IC50 [2]: 1820 nM

CO[C@@H]1[C@@H](n2cc(-c3cc(F)c(F)c(F)c3)nn2)[C@@H](O)[C@@H](CO)O[C@@H]1CC1CC(C(C)(C)CO)=NO1 (stereo partly shown) [Ex 1.281]
IC50 [1]: 530 nM
IC50 [2]: 2550 nM

CO[C@@H]1[C@@H](n2cc(-c3cc(F)c(F)c(F)c3)nn2)[C@@H](O)[C@@H](CO)O[C@@H]1Cc1cc(C2(C)CCOCC2)no1 [Ex 1.282]
IC50 [1]: 110 nM
IC50 [2]: 1770 nM

CO[C@@H]1[C@@H](n2cc(-c3ccc(F)c(F)c3F)nn2)[C@@H](O)[C@@H](CO)O[C@@H]1Cc1cc(C2(C)CCOCC2)no1 [Ex 1.283]
IC50 [1]: 49 nM
IC50 [2]: 380 nM

CO[C@@H]1[C@@H](n2cc(-c3ccc(C)c(F)c3F)nn2)[C@@H](O)[C@@H](CO)O[C@@H]1Cc1cc(C2(C)CCOCC2)no1 [Ex 1.284]
IC50 [1]: 150 nM
IC50 [2]: 5850 nM

CO[C@@H]1[C@@H](n2cc(-c3ccc(Cl)c(F)c3F)nn2)[C@@H](O)[C@@H](CO)O[C@@H]1Cc1cc(C2(C)CCOCC2)no1 [Ex 1.285]
IC50 [1]: 51 nM
IC50 [2]: 1100 nM

CO[C@@H]1[C@@H](n2cc(-c3cc(F)c(F)c(F)c3)nn2)[C@@H](O)[C@@H](CO)O[C@@H]1Cc1cc(C2(C)CCCC2)no1 [Ex 1.286]
IC50 [1]: 230 nM
IC50 [2]: 3080 nM

CO[C@@H]1[C@@H](n2cc(-c3ccc(F)c(F)c3F)nn2)[C@@H](O)[C@@H](CO)O[C@@H]1Cc1cc(C2(C)CCCC2)no1 [Ex 1.287]
IC50 [1]: 69 nM
IC50 [2]: 590 nM

CO[C@@H]1[C@@H](n2cc(-c3ccc(C)c(F)c3F)nn2)[C@@H](O)[C@@H](CO)O[C@@H]1Cc1cc(C2(C)CCCC2)no1 [Ex 1.288]
IC50 [1]: 63 nM
IC50 [2]: 5750 nM

CO[C@@H]1[C@@H](n2cc(-c3ccc(Cl)c(F)c3F)nn2)[C@@H](O)[C@@H](CO)O[C@@H]1Cc1cc(C2(C)CCCC2)no1 [Ex 1.289]
IC50 [1]: 59 nM
IC50 [2]: 1770 nM

CO[C@@H]1[C@@H](n2cc(-c3cc(F)c(F)c(F)c3)nn2)[C@@H](O)[C@@H](CO)O[C@@H]1Cc1cc(C2(C#N)CCCC2)no1 [Ex 1.290]
IC50 [1]: 270 nM
IC50 [2]: 2120 nM

CO[C@@H]1[C@@H](n2cc(-c3ccc(F)c(F)c3F)nn2)[C@@H](O)[C@@H](CO)O[C@@H]1Cc1cc(C2(C#N)CCCC2)no1 [Ex 1.291]
IC50 [1]: 140 nM
IC50 [2]: 940 nM

CO[C@@H]1[C@@H](n2cc(-c3ccc(C)c(F)c3F)nn2)[C@@H](O)[C@@H](CO)O[C@@H]1Cc1cc(C2(C#N)CCCC2)no1 [Ex 1.292]
IC50 [1]: 51 nM
IC50 [2]: 3540 nM

CO[C@@H]1[C@@H](n2cc(-c3ccc(Cl)c(F)c3F)nn2)[C@@H](O)[C@@H](CO)O[C@@H]1Cc1cc(C2(C#N)CCCC2)no1 [Ex 1.293]
IC50 [1]: 93 nM
IC50 [2]: 2920 nM

COc1ccc(C2=NOC(C[C@H]3O[C@H](CO)[C@H](O)[C@H](n4cc(-c5cc(F)c(F)c(F)c5)nn4)[C@H]3OC)C2)cc1 (stereo partly shown) [Ex 1.294]
IC50 [1]: 1540 nM
IC50 [2]: 14000 nM

OC[C@H]1O[C@H](CC2CC(c3cc(Cl)ccc3Cl)=NO2)[C@H](O)[C@@H](n2cc(-c3cc(F)c(F)c(F)c3)nn2)[C@H]1O (stereo partly shown) [Ex 1.295]
IC50 [1]: 1800 nM
IC50 [2]: 17100 nM

COc1ccc(-c2cc(C[C@H]3O[C@H](CO)[C@H](O)[C@H](n4cc(-c5cc(F)c(F)c(F)c5)nn4)[C@H]3O)no2)cc1 [Ex 1.296]
IC50 [1]: 1410 nM
IC50 [2]: 52200 nM

CC(C)(C)OC(=O)N1CCC(C2=NOC(C[C@H]3O[C@H](CO)[C@H](O)[C@H](n4cc(-c5c(F)cccc5F)nn4)[C@H]3O)C2)CC1 (stereo partly shown) [Ex 1.298]
IC50 [1]: 2500 nM
IC50 [2]: 990 nM

COc1cccc(-c2cn([C@H]3[C@@H](O)[C@@H](CO)O[C@H](CC4CC(C5CCN(C(=O)OC(C)(C)C)CC5)=NO4)[C@@H]3O)nn2)c1 (stereo partly shown) [Ex 1.300]
IC50 [1]: 1410 nM
IC50 [2]: 2270 nM

CC(C)(C)OC(=O)N1CCC(C2=NOC(C[C@H]3O[C@H](CO)[C@H](O)[C@H](n4cc(-c5cccc(C(F)(F)F)c5)nn4)[C@H]3O)C2)CC1 (stereo partly shown) [Ex 1.301]
IC50 [1]: 2700 nM
IC50 [2]: 2890 nM

CO[C@@H]1[C@@H](n2cc(-c3cc(F)c(F)c(F)c3)nn2)[C@@H](O)[C@@H](CO)O[C@@H]1Cc1cc(C(C)(C)C(F)F)no1 [Ex 1.303]
IC50 [1]: 140 nM
IC50 [2]: 550 nM

CO[C@@H]1[C@@H](n2cc(-c3ccc4ccccc4c3)nn2)[C@@H](O)[C@@H](CO)O[C@@H]1CC1CC(C2CCN(C(=O)OC(C)(C)C)CC2)=NO1 (stereo partly shown) [Ex 1.304]
IC50 [1]: 1620 nM
IC50 [2]: 3910 nM

CO[C@@H]1[C@@H](n2cc(-c3cccc4ccccc34)nn2)[C@@H](O)[C@@H](CO)O[C@@H]1CC1CC(C2CCN(C(=O)OC(C)(C)C)CC2)=NO1 (stereo partly shown) [Ex 1.305]
IC50 [1]: 1860 nM
IC50 [2]: 1180 nM

CO[C@@H]1[C@@H](n2cc(-c3cc(F)c(F)c(F)c3)nn2)[C@@H](O)[C@@H](CO)O[C@@H]1Cc1cc(C)no1 [Ex 1.306]
IC50 [1]: 1220 nM
IC50 [2]: 6190 nM

CCc1cc(C[C@H]2O[C@H](CO)[C@H](O)[C@H](n3cc(-c4cc(F)c(F)c(F)c4)nn3)[C@H]2OC)on1 [Ex 1.307]
IC50 [1]: 670 nM
IC50 [2]: 7220 nM

CO[C@@H]1[C@@H](n2cc(-c3cc(F)c(F)c(F)c3)nn2)[C@@H](O)[C@@H](CO)O[C@@H]1Cc1cc(C(C)C)no1 [Ex 1.308]
IC50 [1]: 180 nM
IC50 [2]: 2370 nM

CCOC(C)(C)c1cc(C[C@H]2O[C@H](CO)[C@H](O)[C@H](n3cc(-c4cc(F)c(F)c(F)c4)nn3)[C@H]2OC)on1 [Ex 1.309]
IC50 [1]: 690 nM
IC50 [2]: 2740 nM

CO[C@@H]1[C@@H](n2cc(-c3ccccc3)nn2)[C@@H](O)[C@@H](CO)O[C@@H]1CC1CC(C2CCN(C(=O)OC(C)(C)C)CC2)=NO1 (stereo partly shown) [Ex 1.310]
IC50 [1]: 3620 nM
IC50 [2]: 480 nM

CO[C@@H]1[C@@H](n2cc(-c3nc(Br)cs3)nn2)[C@@H](O)[C@@H](CO)O[C@@H]1CC1CC(C2CCN(C(=O)OC(C)(C)C)CC2)=NO1 (stereo partly shown) [Ex 1.311]
IC50 [1]: 2380 nM
IC50 [2]: 65 nM

CO[C@@H]1[C@@H](n2cc(-c3cc(F)c(F)c(F)c3)nn2)[C@@H](O)[C@@H](CO)O[C@@H]1Cc1cc(C2(O)CCCC2)no1 [Ex 1.312]
IC50 [1]: 140 nM
IC50 [2]: 4240 nM

CO[C@@H]1[C@@H](n2cc(-c3cc(F)c(F)c(F)c3)nn2)[C@@H](O)[C@@H](CO)O[C@@H]1Cc1cc(C2(CC#N)CC2)no1 [Ex 1.313]
IC50 [1]: 130 nM
IC50 [2]: 2940 nM

COCC(C)(C)c1cc(C[C@H]2O[C@H](CO)[C@H](O)[C@H](n3cc(-c4cc(F)c(F)c(F)c4)nn3)[C@H]2OC)on1 [Ex 1.314]
IC50 [1]: 130 nM
IC50 [2]: 1380 nM

CO[C@@H]1[C@@H](n2cc(-c3cc(F)c(F)c(F)c3)nn2)[C@@H](O)[C@@H](CO)O[C@@H]1Cc1cc(C(C)(C)CNC(=O)OC(C)(C)C)no1 [Ex 1.315]
IC50 [1]: 270 nM
IC50 [2]: 2210 nM

CO[C@@H]1[C@@H](n2cc(-c3cc(F)c(F)c(F)c3)nn2)[C@@H](O)[C@@H](CO)O[C@@H]1Cc1cc(C(C)(C)CN)no1 [Ex 1.316]
IC50 [1]: 190 nM
IC50 [2]: 2200 nM
